From ChEMBL document CHEMBL1201862, “PubChem BioAssay data set” (2004)
The source made the active and inactive calls.

What was measured:
[1] = Luminescence Cell-Based Dose Response HTS to Identify Activators of Luciferase Translation or Activity in H4 […] Cells. [Related pubchem assays: 1829 (Project Summary), 1814 (Primary HTS)]; type: functional
[2] = Luminescence Cell-Based Dose Confirmation HTS to Identify Activators of 5'UTR Stem-Loop Driven Alpha-Synuclein mRNA Translation in H4 Neuroglioblastoma Cells. [Related pubchem assays: 1829 (Project Summary), 1814 (Primary HTS)]; type: functional
H4 = assay: Luminescence Cell-Based Dose Response HTS to Identify Activators of 5'UTR Stem-Loop Driven Prion Protein mRNA Translation in H4 Neuroglioblastoma Cells. [Related pubchem assays: 1829 (Project Summary), 1814 (Primary HTS)]; type: functional; conditions: Homo sapiens
Leucine aminopeptidase = molecular target: T1, Leucine aminopeptidase (Plasmodium falciparum 3D7, UniProt Q8IL11); assay: P. falciparum M17LAP inhibitors, primary screen, biochemical, fluorogenic H-Leu-NHMec substrate, 1536-well (AID 1619); type: functional
T1 sequence (Q8IL11 whole entry): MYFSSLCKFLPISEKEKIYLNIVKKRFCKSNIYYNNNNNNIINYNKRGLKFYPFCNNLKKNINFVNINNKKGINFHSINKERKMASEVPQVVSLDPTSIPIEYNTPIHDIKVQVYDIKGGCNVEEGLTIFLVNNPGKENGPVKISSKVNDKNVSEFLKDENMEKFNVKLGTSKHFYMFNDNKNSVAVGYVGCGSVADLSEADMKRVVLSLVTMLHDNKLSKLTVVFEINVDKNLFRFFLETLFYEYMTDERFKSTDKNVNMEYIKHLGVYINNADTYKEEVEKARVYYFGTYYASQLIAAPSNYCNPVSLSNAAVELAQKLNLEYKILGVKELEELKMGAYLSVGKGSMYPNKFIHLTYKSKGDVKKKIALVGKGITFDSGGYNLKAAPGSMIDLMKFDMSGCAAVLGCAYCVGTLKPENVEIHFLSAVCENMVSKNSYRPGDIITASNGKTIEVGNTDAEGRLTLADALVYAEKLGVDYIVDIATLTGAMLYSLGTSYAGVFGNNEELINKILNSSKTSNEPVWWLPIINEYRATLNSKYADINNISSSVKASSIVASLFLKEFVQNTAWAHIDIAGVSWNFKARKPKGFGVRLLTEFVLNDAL

Cytochrome P450 1A2 = molecular target: T2, Cytochrome P450 1A2 (Homo sapiens, UniProt P05177);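 further: PubChem cytochrome P450 panel assay, CYP1A2 panel member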
T2 sequence (P05177 whole entry): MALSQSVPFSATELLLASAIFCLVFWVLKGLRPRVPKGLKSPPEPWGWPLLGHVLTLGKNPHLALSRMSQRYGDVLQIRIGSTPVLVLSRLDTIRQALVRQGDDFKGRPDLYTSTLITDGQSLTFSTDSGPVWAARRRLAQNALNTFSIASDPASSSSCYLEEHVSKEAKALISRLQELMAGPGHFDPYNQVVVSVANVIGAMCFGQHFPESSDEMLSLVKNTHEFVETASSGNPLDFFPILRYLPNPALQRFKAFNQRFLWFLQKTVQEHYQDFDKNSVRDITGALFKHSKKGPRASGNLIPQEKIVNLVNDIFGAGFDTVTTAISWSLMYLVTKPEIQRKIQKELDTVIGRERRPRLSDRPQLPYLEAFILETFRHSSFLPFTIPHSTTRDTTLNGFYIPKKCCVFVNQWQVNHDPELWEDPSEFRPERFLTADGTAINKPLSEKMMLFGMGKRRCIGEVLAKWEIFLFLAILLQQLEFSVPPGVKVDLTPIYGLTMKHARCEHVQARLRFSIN

[3] = molecular target: T3, Zinc finger protein mex-5 (Caenorhabditis elegans, UniProt Q9XUB2); assay: MEX-5/TCR-2 RNA interaction inhibitors, dose response, biochemical, C. elegans, fluorescence polarization (AID 1960)
T3 sequence (Q9XUB2 whole entry): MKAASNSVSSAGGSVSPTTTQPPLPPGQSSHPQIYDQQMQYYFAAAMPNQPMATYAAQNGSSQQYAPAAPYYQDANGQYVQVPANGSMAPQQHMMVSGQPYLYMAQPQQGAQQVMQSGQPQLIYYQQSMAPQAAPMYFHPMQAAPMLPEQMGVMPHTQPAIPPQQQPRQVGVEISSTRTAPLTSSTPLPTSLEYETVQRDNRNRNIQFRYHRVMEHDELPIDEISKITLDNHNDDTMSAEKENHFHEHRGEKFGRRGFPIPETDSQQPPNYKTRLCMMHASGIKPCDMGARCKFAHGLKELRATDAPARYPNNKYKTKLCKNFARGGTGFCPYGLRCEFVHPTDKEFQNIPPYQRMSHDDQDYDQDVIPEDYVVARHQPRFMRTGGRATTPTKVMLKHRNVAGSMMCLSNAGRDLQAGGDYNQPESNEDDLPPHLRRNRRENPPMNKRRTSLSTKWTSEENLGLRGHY

[4] = molecular target: T4, RNA-binding protein pos-1 (Caenorhabditis elegans, UniProt G5EF15); assay: inhibitors of POS-1/mex-3 RNA binding, dose response, biochemical, fluorescence polarization (AID 1964);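 further: purified POS-1 fused to maltose binding protein made in E. coli; potency of compounds blocking POS-1 binding to fluorescent RNA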
T4 sequence (G5EF15 whole entry): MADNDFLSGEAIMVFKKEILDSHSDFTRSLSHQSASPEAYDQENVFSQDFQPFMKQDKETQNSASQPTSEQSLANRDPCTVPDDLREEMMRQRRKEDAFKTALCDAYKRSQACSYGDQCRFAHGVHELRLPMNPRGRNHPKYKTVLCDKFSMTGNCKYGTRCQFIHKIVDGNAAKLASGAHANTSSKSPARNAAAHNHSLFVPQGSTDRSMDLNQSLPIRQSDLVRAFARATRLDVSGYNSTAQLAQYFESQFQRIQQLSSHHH

Cytochrome P450 2C19 = Cytochrome P450 2C19 (Homo sapiens, UniProt P33261); assay: Cytochrome panel assay with activity outcomes. Panel member name: p450-cyp2c19 Compounds with AC50 equal or less than 10 uM are considered active; type: functional; conditions: read-out: AC50
Sequence of Cytochrome P450 2C19 (P33261 whole entry): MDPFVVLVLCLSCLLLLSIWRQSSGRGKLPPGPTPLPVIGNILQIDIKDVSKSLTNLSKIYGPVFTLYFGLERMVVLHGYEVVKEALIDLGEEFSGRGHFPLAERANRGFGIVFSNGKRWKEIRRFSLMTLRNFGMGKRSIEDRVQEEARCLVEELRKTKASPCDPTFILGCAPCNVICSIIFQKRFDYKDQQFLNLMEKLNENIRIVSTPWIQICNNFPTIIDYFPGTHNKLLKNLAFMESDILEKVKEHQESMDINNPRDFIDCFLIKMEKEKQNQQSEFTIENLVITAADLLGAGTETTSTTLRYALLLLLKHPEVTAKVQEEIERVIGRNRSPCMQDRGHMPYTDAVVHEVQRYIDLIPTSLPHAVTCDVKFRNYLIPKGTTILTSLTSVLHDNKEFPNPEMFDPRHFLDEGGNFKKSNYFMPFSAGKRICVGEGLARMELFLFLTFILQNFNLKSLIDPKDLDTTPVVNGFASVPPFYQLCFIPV

[5] = molecular target: T5, Replicative DNA helicase DnaB (Mycobacterium tuberculosis, UniProt P9WMR3); assay: DnaB intein splicing inhibitors, dose response, biochemical, cell-free fluorescence (AID 449749); type: functional
T5 sequence (P9WMR3 whole entry): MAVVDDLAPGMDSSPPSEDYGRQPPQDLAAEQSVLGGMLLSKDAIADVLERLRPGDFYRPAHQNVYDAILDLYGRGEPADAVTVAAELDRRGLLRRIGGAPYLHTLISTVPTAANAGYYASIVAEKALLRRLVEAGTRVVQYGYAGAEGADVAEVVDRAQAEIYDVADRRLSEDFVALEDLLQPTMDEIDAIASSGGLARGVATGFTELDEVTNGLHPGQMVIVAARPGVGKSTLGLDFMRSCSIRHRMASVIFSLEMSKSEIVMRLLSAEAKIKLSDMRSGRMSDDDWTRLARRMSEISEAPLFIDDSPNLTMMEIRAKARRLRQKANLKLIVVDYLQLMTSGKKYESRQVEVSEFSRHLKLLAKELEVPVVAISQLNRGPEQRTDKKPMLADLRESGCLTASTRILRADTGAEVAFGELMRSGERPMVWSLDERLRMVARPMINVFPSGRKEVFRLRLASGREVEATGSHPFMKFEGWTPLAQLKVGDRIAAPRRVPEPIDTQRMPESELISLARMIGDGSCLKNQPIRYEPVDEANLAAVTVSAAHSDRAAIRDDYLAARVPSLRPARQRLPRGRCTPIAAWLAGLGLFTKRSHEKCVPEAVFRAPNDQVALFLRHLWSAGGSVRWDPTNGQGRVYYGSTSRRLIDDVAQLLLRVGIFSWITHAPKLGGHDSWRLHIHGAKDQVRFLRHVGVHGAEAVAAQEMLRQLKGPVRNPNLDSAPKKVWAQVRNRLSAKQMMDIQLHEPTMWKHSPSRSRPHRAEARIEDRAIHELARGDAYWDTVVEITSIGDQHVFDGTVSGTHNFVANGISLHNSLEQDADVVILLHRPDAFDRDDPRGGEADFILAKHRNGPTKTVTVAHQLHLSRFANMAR

Protein RecA = molecular target: T6, Protein RecA (Mycobacterium tuberculosis, UniProt P9WHJ3); assay: Fluorescence Cell-Free Homogeneous Dose Retest to Identify Inhibitors of RecA-Intein Splicing Activity. [Related pubchem assays (depositor defined):AID2097, AID2223, AID489010, AID492950]; type: functional
T6 sequence (P9WHJ3 whole entry): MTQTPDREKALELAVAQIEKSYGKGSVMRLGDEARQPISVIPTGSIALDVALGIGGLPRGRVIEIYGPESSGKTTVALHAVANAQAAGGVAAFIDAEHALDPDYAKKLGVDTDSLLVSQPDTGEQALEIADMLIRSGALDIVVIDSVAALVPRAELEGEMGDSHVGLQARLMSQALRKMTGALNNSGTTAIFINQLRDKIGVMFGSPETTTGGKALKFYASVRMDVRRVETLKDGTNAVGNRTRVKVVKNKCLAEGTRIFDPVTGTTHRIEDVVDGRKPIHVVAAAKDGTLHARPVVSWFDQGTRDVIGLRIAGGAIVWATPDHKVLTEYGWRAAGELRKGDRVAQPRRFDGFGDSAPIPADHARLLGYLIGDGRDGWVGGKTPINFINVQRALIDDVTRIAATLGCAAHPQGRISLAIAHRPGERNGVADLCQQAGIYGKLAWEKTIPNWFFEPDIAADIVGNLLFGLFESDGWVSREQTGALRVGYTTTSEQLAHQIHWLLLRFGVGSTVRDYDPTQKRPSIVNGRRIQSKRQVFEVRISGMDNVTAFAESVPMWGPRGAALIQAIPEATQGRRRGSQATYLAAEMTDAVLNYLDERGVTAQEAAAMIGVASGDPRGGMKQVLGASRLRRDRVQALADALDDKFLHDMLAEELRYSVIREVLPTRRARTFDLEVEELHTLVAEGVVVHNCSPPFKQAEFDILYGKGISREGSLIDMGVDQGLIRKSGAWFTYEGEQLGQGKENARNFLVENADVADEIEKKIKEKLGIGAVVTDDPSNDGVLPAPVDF

[6] = Luminescence Cell-Based Dose Confirmation HTS to Identify Inhibitors of Platelet Dense Granule Release. [Related pubchem assays: 1663 (Primary HTS), 1678 (Summary of Project)]; type: functional
[7] = molecular target: Luciferin 4-monooxygenase (Photinus pyralis, UniProt P08659); assay: firefly luciferase enzyme inhibitors, dose response, biochemical, luminescence (AID 1891)
Sequence of Luciferin 4-monooxygenase (P08659 whole entry): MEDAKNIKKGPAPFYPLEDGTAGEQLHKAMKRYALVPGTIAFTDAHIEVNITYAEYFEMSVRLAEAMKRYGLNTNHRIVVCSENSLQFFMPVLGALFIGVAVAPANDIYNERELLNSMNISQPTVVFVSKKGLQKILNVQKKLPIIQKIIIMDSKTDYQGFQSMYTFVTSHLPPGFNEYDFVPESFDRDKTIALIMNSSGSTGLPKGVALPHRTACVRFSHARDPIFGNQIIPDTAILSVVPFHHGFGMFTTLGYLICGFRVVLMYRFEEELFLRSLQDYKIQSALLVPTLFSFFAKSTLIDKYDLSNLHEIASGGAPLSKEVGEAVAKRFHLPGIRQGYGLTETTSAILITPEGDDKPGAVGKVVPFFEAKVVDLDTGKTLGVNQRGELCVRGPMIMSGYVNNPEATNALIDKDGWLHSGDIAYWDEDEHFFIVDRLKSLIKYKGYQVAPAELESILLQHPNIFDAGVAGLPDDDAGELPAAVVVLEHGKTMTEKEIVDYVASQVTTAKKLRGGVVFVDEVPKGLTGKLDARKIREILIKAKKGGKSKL

For `Cn1c(CCNC(=O)c2cccs2)nnc1SCC(=O)Nc1nc(-c2ccccc2)cs1`, the EC50 [1] was 24.5 µM (active), the EC50 [2] was > 120 µM (not active) and the EC50 (H4) was 27.3 µM (active).

For `O=C(Nc1c(C(=O)Nc2ccc3c(c2)OCCO3)cnn1-c1ccccc1Cl)c1ccco1`, the EC50 [1] was 20.5 µM (active), the EC50 [2] was 20 µM (active) and the EC50 (H4) was > 120 µM (not active).

In the case of `C/N=C(\c1ccc(C)cc1)n1c(=S)nc(-c2ccc(C)cc2)n(C)c1=S`, the EC50 [1] is reported as 15.4 µM (active), the EC50 [2] is reported as > 120 µM (not active) and the EC50 (H4) is reported as 21.3 µM (active).

For `N#Cc1c(/N=C/C2C(=O)NC(=S)NC2=O)sc2c1CCCC2`, the IC50 (Leucine aminopeptidase) was 110 µM (active).

In the case of `Cc1ccc(-c2nc(N3CCOCC3)s[n+]2-c2ccccc2)cc1.[O-][Cl+3]([O-])([O-])[O-]`, the EC50 [1] is reported as 7.52 µM (active), the EC50 [2] is reported as 7.82 µM (active) and the EC50 (H4) is reported as 31.5 µM (active).

With `COc1ccc2[nH]cc(C(=O)CN3CCC(C)CC3)c2c1` the EC50 [1] was 17.6 µM (active), the EC50 [2] was 5.71 µM (active) and the EC50 (H4) was 14.4 µM (active).

For `CC(/C=C1\N=C(SCc2ccccc2Cl)SC1=O)=C\c1ccccc1`, the AC50 (Cytochrome P450 1A2) was 4.47 µM (inconclusive), the EC50 [3] was > 300 µM (not active) and the EC50 [4] was > 300 µM (not active). For the same compound, the AC50 (Cytochrome P450 2C19) was 7.08 µM (inconclusive).

With `COC(=O)c1c(NC(=O)/C=C/C(=O)O)sc(C)c1-c1ccc(C)c(C)c1` the AC50 [5] was 15.1 µM (active), the EC50 (Protein RecA) was 5.69 µM (active) and the IC50 (Leucine aminopeptidase) was 35.6 µM (active).

With `CN(C(=O)c1ccc(OC2CCN(CCc3ccccc3)CC2)cc1)C1CCCCC1` the EC50 [1] was 18.5 µM (active), the EC50 [2] was 13.3 µM (active) and the EC50 (H4) was > 120 µM (not active).

With `O=C(Nc1ccccc1)NC(Cc1ccc(O)cc1)C(=O)O` (stereo unspecified) the IC50 (Leucine aminopeptidase) was 34.7 µM (active).

In the case of `CSc1nnc(N2C(=O)C(O)=C(C(=O)c3ccco3)C2c2cccc(Cl)c2)s1` (stereo unspecified), the EC50 [6] is reported as > 112 µM (not active), the EC50 [7] is reported as > 112 µM (not active) and the EC50 [3] is reported as 14.3 µM (active). The EC50 [4] was 31.3 µM (active).

In the case of `O=C(O)CCc1nnc(SCC(=O)Nc2ccc(Cl)c(C(F)(F)F)c2)nc1O`, the IC50 (Leucine aminopeptidase) is reported as 2.82 µM (active).

In the case of `Cc1ccc2nc(NC(=O)COC(=O)c3ccncc3)sc2c1`, the EC50 [1] is reported as > 120 µM (not active), the EC50 [2] is reported as > 120 µM (not active) and the EC50 (H4) is reported as 11.4 µM (active).

With `COc1ccc2cc(/C=C3\SC(=S)NC3=O)c(N3CCOCC3)nc2c1` the IC50 (Leucine aminopeptidase) was 1.76 µM (active).
